Measurements as given in US20260085047A1, “TRIPHENYLAZOLE COMPOUND” (SHIRATORI PHARMACEUTICAL CO., LTD., priority 2022, published 2026).

What was measured:
[1] = tested on: MPTP-treated C57BL6 N mice (PD model animals); experiment: Beam walking task in PD model animals (MPTP); type: in vivo, mouse; conditions: Example Compound 2 0.03, 0.1, 0.3 mg/kg or LIGAND 1 0.3 mg/kg, Day 34, FIG. 5
Protocol: In the beam walking task, the mice were placed on a thin board and allowed to walk, and the number of foot slips before reaching the goal box (corresponding to the vertical axis Number of foot slips in FIG. 5) was measured.

[2] = tested on: MPTP-treated C57BL6 N mice (PD model animals); experiment: Rotarod task in PD model animals (MPTP); type: in vivo, mouse; conditions: Example Compound 2 0.03, 0.1, 0.3 mg/kg or LIGAND 1 0.3 mg/kg, Day 34, 20 rpm, FIG. 4
GST-FABP4 = target: T1, GST-FABP4; experiment: Evaluation of FABP ligand affinity using ANS (GST-FABP4); type: binding, mouse; conditions: ANS fluorescence displacement; mean±SE of three measurements; read-out: Kd value of FABP for each ligand, GST-FABP4
T1 construct: made in house; host or cells: E. coli BL21 (DE3)
Protocol: (§1) GST-FABP3, GST-FABP4, GST-FABP5, and GST-FABP7 were each expressed in E. coli [BL21 (DE3) strain], and then affinity purification was performed using a glutathione column.
(§2) Cloning of GST-FABP3, GST-FABP4, GST-FABP5 and GST-FABP7 vectors was performed by the following method. After reverse transcription of mRNA isolated from mouse heart into cDNA, the FABP3 gene (RefSeqID: NM_010174.1) and FABP4 gene (RefSeqID: NM_024406.2) were each amplified by PCR. These cDNAs were each inserted between the BamHI/EcoRI cleavage sites of a pGEX-2T vector (GE HealthCare Japan, Tokyo) using a DNA ligation kit (Takara Bio, Kusatsu) and an In-fusion kit (Takara Bio USA, CA, USA) to prepare vectors.
(§3) Purification of GST-binding proteins was performed using a GST purification kit (Takara Bio USA). After the E. coli were collected by centrifugation, the provided extraction buffer and aluminum oxide powder were added, and the mixture was crushed in a mortar. The centrifuged supernatant was added to the provided glutathione column and allowed to stand on ice for 30 minutes. The supernatant in the column was then discarded, and washing was performed with extraction buffer, followed by elution with elution buffer containing glutathione. The protein concentration of the elution product was calculated from the absorbance at 280 nm and then used for the ANS assay. 1-anilinonaphthalene-8-sulfonic acid (ANS, final concentration: […], in a solution of 10 mM KH2PO4 and 40 mM KCl at pH 7.4), which binds to FABP proteins and emits fluorescence, and FABP proteins (final concentration: […]), as well as various ligands at concentrations of 0 nM, 100 nM, 1,000 nM, 2,000 nM, and 4,000 nM (final) were incubated for 2 min, and then the fluorescence of ANS was measured (Ex/Em=355 nm/460 nm). The fluorescence intensity at each ligand concentration was converted to a relative value (%) to the ANS fluorescence intensity in the absence of ligand, and then the dissociation constant Kd (nM) was calculated by […] using the following equation.
The Kd values in the above table are indicated as the mean±SE of three measurements. […] Example Compounds 1 to 5 in the table may also be referred to as Compounds 1 to 5, respectively.

dopaminergic neurons = conditions: reported in PTL 1 and NPL 6; cited from earlier work
[3] = tested on: dopaminergic neurons (TH+ cells) in SNpc and VTA; experiment: Dopaminergic neuroprotection: TH-positive cells in brain sections of PD model animals; type: in vivo, mouse; conditions: MPTP mice; Example Compound 2 0.1, 0.3, 1.0 mg/kg or LIGAND 1 0.3 mg/kg; Day 34; FIGS. 6 to 9
Text: The results for the substantia nigra region are shown in FIGS. 6, 7, 10, 11, 14, and 15, and for the ventrotegmental area in FIGS. 8, 9, 12, 13, 16, and 17 (the vertical axis Number of TH^+ cells in FIGS. 6 and 8 corresponds to the number of dopaminergic neurons. The vertical axis Number of double-positive cells/TH^+ positive cells (%) in FIGS. 11 and 13 corresponds to the percentage of dopaminergic neurons that contain phosphorylated α-synuclein. The vertical axis Triple-positive cells/TH-positive cells in FIGS. 15 and 17 corresponds to the percentage of dopaminergic neurons that contain both FABP3 and phosphorylated α-synuclein).

GST-FABP5 = target: T2, GST-FABP5; experiment: Evaluation of FABP ligand affinity using ANS (GST-FABP5); type: binding, mouse; conditions: ANS fluorescence displacement; mean±SE of three measurements; read-out: Kd value of FABP for each ligand, GST-FABP5
T2 construct: made in house; host or cells: E. coli BL21 (DE3)
Protocol: as §1, §2, §3

T1 sequence (P15090 whole entry): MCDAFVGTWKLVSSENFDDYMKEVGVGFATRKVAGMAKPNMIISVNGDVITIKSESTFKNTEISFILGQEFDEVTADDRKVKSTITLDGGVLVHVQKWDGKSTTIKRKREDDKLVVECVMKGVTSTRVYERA
T2 sequence (Q01469 whole entry): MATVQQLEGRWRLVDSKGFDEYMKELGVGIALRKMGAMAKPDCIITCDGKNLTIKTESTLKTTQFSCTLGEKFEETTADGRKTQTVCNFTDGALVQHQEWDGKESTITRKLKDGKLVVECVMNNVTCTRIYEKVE

In the case of `O=C(O)CCCOc1ccccc1-c1cc(-c2ccccc2Cl)n(-c2ccccc2)n1` [LIGAND 1, reference compound], the “Beam walking task: number of foot slips, motor function” value [1] is reported as “Improvement was also confirmed”, the “Rotarod task: time until the mice fell (Latency), motor function” value [2] is reported as “No improvement was observed” and the Kd (GST-FABP4) is reported as 229 ± 39.9 nM. The “Protection of dopaminergic neurons from cell death due to α-synuclein oligomerization” value (dopaminergic neurons) was “protects dopaminergic neurons from cell death”, the “Number of TH+ cells (dopaminergic neurons) in SNpc and VTA” value [3] was “no improvement was observed” and the Kd (GST-FABP5) was 324 ± 45.2 nM.
